Here are results for nine compounds from ChEMBL document CHEMBL6182840, “A review of click chemistry in the synthesis of organophosphorus triazoles and their biological activities” (Eur J Med Chem, 2025).

Structures are written as SMILES.

A short description of assay [1]: Cytotoxicity against human PBMC cells assessed as reduction in cell viability by MTS assay. It is filed as functional, cell-based. (In general: Tetrazolium assays rely on reduction of a dye to a coloured formazan, in cell work by metabolically active cells.)
The test system of assay [2] is Hepatitis B virus. In words: Antiviral activity against HBV infected in human Huh-7 cells assessed as inhibition of HBV DNA production at 10 uM relative to control. In kind it is functional.
Assay [3] has as its system HepG2. In words: Cytotoxicity against human HepG2 cells assessed as reduction in cell viability by MTS assay. It is filed as functional, cell-based.
The subject of assay [4] is MCF7. In words: Cytotoxicity against human MCF7 cells assessed as reduction in cell growth by MTT assay. It is filed as functional, cell-based.
Assay [5] in a line: Cytotoxicity against human HEF cells assessed as reduction in cell growth by MTT assay. It is filed as functional, cell-based.
Assay [6] deals with HCT-116. In words: Cytotoxicity against human HCT-116 cells assessed as reduction in cell growth by MTT assay. It is filed as functional, cell-based.
In assay [7] the test system is MCF7. In words: Cytotoxicity against human MCF7 cells assessed as reduction in cell viability incubated for 72 hrs by MTT assay. It is filed as functional, cell-based. To be noted: MCF7, 72 h.
Assay [8] has as its system A549. In words: Cytotoxicity against human A549 cells assessed as reduction in cell viability incubated for 72 hrs by MTT assay. In kind it is functional, cell-based. To be noted: A549, 72 h.
Assay [9] deals with PC-3. The experiment in a line: Cytotoxicity against human PC-3 cells assessed as reduction in cell viability incubated for 72 hrs by MTT assay. In kind it is functional, cell-based. To be noted: PC-3, 72 h.
Assay [10] has as its system HCT-116. In words: Cytotoxicity against human HCT-116 cells assessed as reduction in cell viability incubated for 72 hrs by MTT assay. To be noted: HCT-116, 72 h. It is filed as functional, cell-based.
The test system of assay [11] is Caov-3 cell line. In words: Cytotoxicity against human Caov-3 cell line assessed as reduction in cell viability incubated for 72 hrs by MTT assay. It is filed as functional, cell-based. To be noted: Caov-3, 72 h.
Assay [12] deals with T1, 4-galactosyl-N-acetylglucosaminide 3-alpha-L-fucosyltransferase FUT6 (Homo sapiens, UniProt P51993).
T1 sequence (P51993 whole entry): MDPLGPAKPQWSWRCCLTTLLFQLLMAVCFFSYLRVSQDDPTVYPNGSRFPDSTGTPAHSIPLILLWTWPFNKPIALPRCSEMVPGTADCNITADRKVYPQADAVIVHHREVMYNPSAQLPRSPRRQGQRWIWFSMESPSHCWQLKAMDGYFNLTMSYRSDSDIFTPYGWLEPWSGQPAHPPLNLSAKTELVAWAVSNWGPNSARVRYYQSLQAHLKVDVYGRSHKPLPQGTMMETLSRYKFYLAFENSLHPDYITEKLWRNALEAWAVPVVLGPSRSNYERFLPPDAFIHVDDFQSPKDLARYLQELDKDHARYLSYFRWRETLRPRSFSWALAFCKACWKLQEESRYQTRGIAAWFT
In words: Inhibition of human FUT6.

What is called IC50 is the concentration that inhibits the measured activity by half. In general, inhibition refers to the share of the control response that was lost under treatment. Take `CCCCCCCCCCCCCCCCOCCCOP(=O)(C/C=C(\C)Cn1cc(C(N)=O)nn1)OCOC(=O)OC(C)C` (stereo not given): the IC50 in assay [1] was 43100 nM; in assay [3] it was 66400 nM. Also, in assay [2], the inhibition at 10 µM stood at 62%.

For `CCOP(=O)(OCC)C(Cc1cn(CCN2C/C(=C\c3ccc([N+](=O)[O-])cc3)C(=O)/C(=C/c3ccc([N+](=O)[O-])cc3)C2)nn1)P(=O)(OCC)OCC`, the IC50 in assay [4], in assay [5] and in assay [6] was 5000 nM in each case.

Take `CCOP(=O)(CCCn1cc(CN2C/C(=C\c3ccc(C#N)cc3)C(=O)/C(=C/c3ccc(C#N)cc3)C2)nn1)OCC`: the 50% inhibitory concentration (IC50) in assay [7], in assay [8], in [9], in [10] and in assay [11] was 1500 nM throughout.

As to `CCOP(=O)(CCCCn1cc(CN2C/C(=C\c3ccc([N+](=O)[O-])cc3)C(=O)/C(=C/c3ccc([N+](=O)[O-])cc3)C2)nn1)OCC`, the IC50 in [7], in assay [8], in assay [9], in assay [10] and in assay [11] was 1500 nM throughout.

Take `CCOP(=O)(CCCn1cc(CN2C/C(=C\c3ccc([N+](=O)[O-])cc3)C(=O)/C(=C/c3ccc([N+](=O)[O-])cc3)C2)nn1)OCC`: the IC50 in assay [7], in [8], in assay [9], in assay [10] and in assay [11] was 1500 nM in each case.

Compound `Nc1nc2c(ncn2[C@@H]2O[C@H](COP(=O)(O)OP(=O)(O)OCc3cn(CCCCC(=O)NCc4ccc(-c5ccccc5)cc4)nn3)[C@@H](O)[C@H]2O)c(=O)[nH]1` had an IC50 in assay [12] of 610 nM.

As for `CCOP(=O)(CCCCn1cc(CN2C/C(=C\c3ccc(C#N)cc3)C(=O)/C(=C/c3ccc(C#N)cc3)C2)nn1)OCC`, the IC50 in [7], in [8], in assay [9], in assay [10] and in assay [11] was 1500 nM throughout.

As for `CCOP(=O)(OCC)C(Cc1cn(CCN2C/C(=C\c3ccc(C#N)cc3)C(=O)/C(=C/c3ccc(C#N)cc3)C2)nn1)P(=O)(OCC)OCC`, the IC50 in assay [4], in assay [5] and in assay [6] was 5000 nM in each case.

As to `CCOP(=O)(CCCn1cc(CN2C/C(=C\c3ccc(F)cc3)C(=O)/C(=C/c3ccc(F)cc3)C2)nn1)OCC`, the IC50 in assay [7], in assay [8], in assay [9], in [10] and in [11] was 1500 nM each time.
